Data taken from publication PMC8709289, “Tetrahydroimidazo[4,5-c]pyridine-Based Inhibitors of Porphyromonas gingivalis Glutaminyl Cyclase” (Pharmaceuticals, 2021).
Read-outs that look alike come from different tables or passages of the source.

Tests used:
[1] = target: PgQC (glutaminyl cyclase from P. gingivalis) (Porphyromonas gingivalis, UniProt Q7MT37); assay: Inhibition of P. gingivalis glutaminyl cyclase, fluorogenic substrate H-Gln-AMC; type: biochemical
Method: (§2) The enzymatic activity of recombinant QCs were evaluated using the fluorogenic substrate H-Gln-AMC as described previously [25]. For inhibitor testing, compounds were added with 1% (v/v) DMSO in the reaction mixture. Inhibitory constants were determined using concentrations of H-Gln-AMC varying from 1/4 KM to 2 KM and a final concentration of QC in a range between 20 and 50 nM. Progress curves were fitted to the general equation for competitive inhibition using GraFit software (Version 7, Erithacus software Ltd., Horley, UK).

[2] = target: PiQC (Prevotella intermedia, UniProt A0A3R7XL21); assay: Inhibition of Prevotella intermedia glutaminyl cyclase, fluorogenic substrate H-Gln-AMC; type: biochemical; settings: recombinant QC, competitive inhibition fit
Chain of PiQC (A0A3R7XL21 entry or part of it): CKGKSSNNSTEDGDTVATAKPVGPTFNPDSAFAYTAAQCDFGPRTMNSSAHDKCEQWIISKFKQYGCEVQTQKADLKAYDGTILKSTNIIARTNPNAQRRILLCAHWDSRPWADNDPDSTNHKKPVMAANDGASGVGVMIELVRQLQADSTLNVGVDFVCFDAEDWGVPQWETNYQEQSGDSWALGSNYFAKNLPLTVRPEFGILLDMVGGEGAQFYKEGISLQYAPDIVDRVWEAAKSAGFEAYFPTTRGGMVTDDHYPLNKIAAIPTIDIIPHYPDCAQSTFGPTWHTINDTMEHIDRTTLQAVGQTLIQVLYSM
Method: (§3) The enzymatic activity of recombinant QCs were evaluated using the fluorogenic substrate H-Gln-AMC as described previously [25]. For inhibitor testing, compounds were added with 1% (v/v) DMSO in the reaction mixture.

[3] = target: hQC (human glutaminyl cyclase) (Homo sapiens, UniProt Q16769); assay: Inhibition of human glutaminyl cyclase, fluorogenic substrate H-Gln-AMC; type: biochemical
Chain of hQC (human glutaminyl cyclase) (Q16769 29-361): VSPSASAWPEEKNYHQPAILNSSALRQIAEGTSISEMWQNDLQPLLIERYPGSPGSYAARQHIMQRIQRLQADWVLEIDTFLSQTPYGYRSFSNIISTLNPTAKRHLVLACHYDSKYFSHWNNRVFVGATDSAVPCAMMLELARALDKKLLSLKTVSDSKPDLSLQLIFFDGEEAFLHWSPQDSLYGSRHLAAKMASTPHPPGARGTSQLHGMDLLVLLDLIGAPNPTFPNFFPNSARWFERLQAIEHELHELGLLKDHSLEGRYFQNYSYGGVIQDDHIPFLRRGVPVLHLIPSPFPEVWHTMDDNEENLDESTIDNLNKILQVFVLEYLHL
Method: as §3

[4] = Cytotoxicity, cell viability in SHSY-5Y; type: cell-based; settings: human, SHSY-5Y cells; 30 µM compound
Text: (§1) Table 3 Inhibition of related glutaminyl cyclases from bacteria and human and cytotoxicity of selected inhibitors. | column: 8k; 8t; 8w

[5] = target: TfQC; assay: Inhibition of Tannerella forsythia glutaminyl cyclase, fluorogenic substrate H-Gln-AMC; settings: read-out: Ki TfQC; recombinant QC, competitive inhibition fit
Method: as §2

[6] = Cytotoxicity, cell viability in Hep-G2; type: cell-based; settings: human, Hep-G2 cells; 30 µM compound
Text: as §1

[7] = recombinant QC, competitive inhibition fit, read-out: Ki PgQC
[8] = recombinant QC, competitive inhibition fit, read-out: Ki hQC

Chain of PgQC (glutaminyl cyclase from P. gingivalis) (Q7MT37 entry or part of it): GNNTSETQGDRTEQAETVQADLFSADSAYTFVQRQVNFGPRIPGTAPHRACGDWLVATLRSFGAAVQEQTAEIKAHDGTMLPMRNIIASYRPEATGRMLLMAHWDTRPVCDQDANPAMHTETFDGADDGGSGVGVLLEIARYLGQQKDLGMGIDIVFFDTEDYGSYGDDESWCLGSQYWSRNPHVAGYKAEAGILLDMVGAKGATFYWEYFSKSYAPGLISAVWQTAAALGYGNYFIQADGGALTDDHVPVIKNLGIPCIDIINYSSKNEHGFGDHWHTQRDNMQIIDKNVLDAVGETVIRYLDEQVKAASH

COc1cccc(C(=O)N2CCc3[nH]cnc3C2)c1 [8m, (3-Methoxyphenyl)-(3,4,6,7-tetrahydroimidazo[4,5-c]pyridin-5-yl)methanone]
Ki [1, 7]: 335 ± 6 nM

O=C(/C=C/c1ccccc1)N1CCc2[nH]cnc2C1 [8d, (E)-3-Phenyl-1-(3,4,6,7-tetrahydroimidazo[4,5-c]pyridin-5-yl)prop-2-en-1-one]
Ki [1, 7]: 1570 ± 25 nM

O=C(c1cccc(F)c1)N1CCc2[nH]cnc2C1 [8f, (3-Fluorophenyl)-(3,4,6,7-tetrahydroimidazo[4,5-c]pyridin-5-yl)methanone]
Ki [1, 7]: 322 ± 6 nM

c1ccc(CN2CCc3[nH]cnc3C2)cc1 [7a, 5-Benzyl-3,4,6,7-tetrahydroimidazo[4,5-c]pyridine]
Ki [1, 7]: 909 ± 5 nM

COc1cc(OC)cc(C(=O)N2CCc3[nH]cnc3C2)c1 [8o, (3,5-Dimethoxyphenyl)-(3,4,6,7-tetrahydroimidazo[4,5-c]pyridin-5-yl)methanone]
Ki [1, 7]: 928 ± 21 nM

CC1c2nc[nH]c2CCN1Cc1ccccc1 (stereo not shown) [7d, 5-Benzyl-4-methyl-3,4,6,7-tetrahydroimidazo[4,5-c]pyridine]
Ki [1, 7]: 3080 ± 40 nM

O=C(c1ccc(Cl)c(Cl)c1)N1CCc2[nH]cnc2C1 [8j, (3,4-Dichlorophenyl)-(3,4,6,7-tetrahydroimidazo[4,5-c]pyridin-5-yl)methanone]
Ki [1, 7]: 257 ± 16 nM

O=C(c1cccc(Cl)c1)N1CCc2[nH]cnc2C1 [8i, (3-Chlorophenyl)-(3,4,6,7-tetrahydroimidazo[4,5-c]pyridin-5-yl)methanone]
Ki [1, 7]: 174 ± 14 nM

O=C(c1ccc(Cl)cc1)N1CCc2[nH]cnc2C1 [8h, (4-Chlorophenyl)-(3,4,6,7-tetrahydroimidazo[4,5-c]pyridin-5-yl)methanone]
Ki [1, 7]: 682 ± 25 nM

O=C(c1ccc2c(c1)OCO2)N1CCc2[nH]cnc2C1 [8q, Benzo[d][1,3]dioxol-5-yl(3,4,6,7-tetrahydroimidazo[4,5-c]pyridin-5-yl)methanone]
Ki [1, 7]: 560 ± 4 nM

c1c[nH]cn1 [compound 2, imidazole, reference compound]
Ki [1, 7]: 350000 ± 23000 nM

COc1cc(C(=O)N2CCc3[nH]cnc3C2)ccc1F [8s, (4-Fluoro-3-methoxyphenyl)-(3,4,6,7-tetrahydroimidazo[4,5-c]pyridin-5-yl)methanone]
Ki [1, 7]: 1240 ± 113 nM

O=C(c1ccc2ccccc2c1)N1CCc2nc[nH]c2C1 [8w, Naphthalen-2-yl-(3,4,6,7-tetrahydroimidazo[4,5-c]pyridin-5-yl)methanone]
Ki [2]: 117 ± 2 nM | Ki [3, 8]: 132 ± 11 nM | viability at 30 µM [4]: 127% | Ki [1]: 126 ± 9 nM | Ki [5]: 185 ± 10 nM | viability at 30 µM [6]: 94%

COc1ccc(NC(=S)NCCCn2ccnc2)cc1OC [PQ50, reference compound]
Ki [1, 7]: 6000 ± 150 nM

O=C(c1ccc(F)cc1)N1CCc2[nH]cnc2C1 [8e, (4-Fluorophenyl)-(3,4,6,7-tetrahydroimidazo[4,5-c]pyridin-5-yl)methanone]
Ki [1, 7]: 879 ± 8 nM

COc1ccc(C(=O)N2CCc3[nH]cnc3C2)cc1 [8l, (4-Methoxyphenyl)-(3,4,6,7-tetrahydroimidazo[4,5-c]pyridin-5-yl)methanone]
Ki [1, 7]: 833 ± 49 nM

c1ccc(CN2CCc3[nH]cnc3C23COC3)cc1 [7c, 5-Benzylspiro[6,7-dihydro-3H-imidazo[4,5-c]pyridine-4,3′-oxetane]]
Ki [1, 7]: 1760 ± 145 nM

O=C(c1cccc(-c2ccccc2)c1)N1CCc2[nH]cnc2C1 [8v, [1,1′-Biphenyl]-3-yl-(3,4,6,7-tetrahydroimidazo[4,5-c]pyridin-5-yl)methanone]
Ki [1, 7]: 547 ± 41 nM

c1ccc2[nH]cnc2c1 [compound 1, benzimidazole, reference compound]
Ki [1, 7]: 32000 ± 1400 nM

O=C(c1ccc2c(c1)OCCO2)N1CCc2[nH]cnc2C1 [8p, (2,3-Dihydrobenzo[b][1,4]dioxin-6-yl)(1,4,6,7-tetrahydro-5H-imidazo-[4,5-c]pyridin-5-yl)methanone]
Ki [1, 7]: 1340 ± 219 nM

O=C(c1ccc(-c2ccccc2)cc1)N1CCc2[nH]cnc2C1 [8u, [1,1′-Biphenyl]-4-yl(3,4,6,7-tetrahydroimidazo[4,5-c]pyridin-5-yl)methanone]
Ki [1, 7]: 1900 ± 71 nM

CCCOc1cccc(C(=O)N2CCc3[nH]cnc3C2)c1 [8r, (3-Propoxyphenyl)-(3,4,6,7-tetrahydroimidazo[4,5-c]pyridin-5-yl)methanone]
Ki [1, 7]: 780 ± 24 nM

COc1cc(Cl)cc(C(=O)N2CCc3[nH]cnc3C2)c1 [8t, (3-Chloro-5-methoxyphenyl)(1,4,6,7-tetrahydro-5H-imidazo[4,5-c]pyridin-5-yl)methanone]
Ki [2]: 96 ± 12 nM | Ki [3, 8]: 385 ± 96 nM | viability at 30 µM [4]: 128% | Ki [1, 7]: 87 ± 6 nM | Ki [5]: 221 ± 19 nM | viability at 30 µM [6]: 96%

COc1ccc(C(=O)N2CCc3[nH]cnc3C2)cc1OC [8n, (3,4-Dimethoxyphenyl)-(3,4,6,7-tetrahydroimidazo[4,5-c]pyridin-5-yl)methanone]
Ki [1, 7]: 1470 ± 304 nM

O=C(c1ccccc1)N1CCc2[nH]cnc2C1 [8a, Phenyl(3,4,6,7-tetrahydroimidazo[4,5-c]pyridin-5-yl)methanone]
Ki [1, 7]: 435 ± 15 nM

c1ccc(CCN2CCc3[nH]cnc3C2)cc1 [7b, 5-(2-Phenylethyl)-3,4,6,7-tetrahydroimidazo[4,5-c]pyridine]
Ki [1, 7]: 6470 ± 400 nM

c1ccc(CNCCc2c[nH]cn2)cc1 [6a, N-Benzylhistamine]
Inhibition of PgQC at 10 µM [1]: no inhibition @ 10 µM

c1ccc(Cn2ccnc2)cc1 [compound 3, N-benzylimidazole, reference compound]
Ki [3]: 17000 ± 3000 nM | Ki [1, 7]: 10000 ± 200 nM

c1ccc(CN2CCc3nc[nH]c3C2c2ccccc2)cc1 (stereo not shown) [7e, 5-Benzyl-4-phenyl-3,4,6,7-tetrahydroimidazo[4,5-c]pyridine]
Inhibition of PgQC at 10 µM [1]: no inhibition @ 10 µM

O=C(CCc1ccccc1)N1CCc2[nH]cnc2C1 [8c, 3-Phenyl-1-(3,4,6,7-tetrahydroimidazo[4,5-c]pyridin-5-yl)propan-1-one]
Ki [1, 7]: 1750 ± 60 nM

O=C(c1cc(Cl)cc(Cl)c1)N1CCc2nc[nH]c2C1 [8k, (3,5-Dichlorophenyl)-(3,4,6,7-tetrahydroimidazo[4,5-c]pyridin-5-yl)methanone]
Ki [2]: 63 ± 7 nM | Ki [3, 8]: 387 ± 64 nM | viability at 30 µM [4]: 119% | Ki [1, 7]: 100 ± 6 nM | Ki [5]: 176 ± 3 nM | viability at 30 µM [6]: 92%

O=C(c1cc(F)c(F)c(F)c1)N1CCc2[nH]cnc2C1 [8g, (3,4,6,7-Tetrahydroimidazo[4,5-c]pyridin-5-yl)(3,4,5-trifluoro-phenyl)methanone]
Ki [1, 7]: 904 ± 7 nM

O=C(Cc1ccccc1)N1CCc2[nH]cnc2C1 [8b, 2-Phenyl-1-(3,4,6,7-tetrahydroimidazo[4,5-c]pyridin-5-yl)ethanone]
Ki [1, 7]: 1680 ± 80 nM
